In ChEMBL document CHEMBL4819016, “2-Propargylamino-naphthoquinone derivatives as multipotent agents for the treatment of Alzheimer's disease” (Eur J Med Chem, 2021):
Activity calls are given as the source filed them. The calls are words filed in the database; no cut-off is given here.

Legend:
[1] = target: Amyloid-beta precursor protein (Homo sapiens) (UniProt P05067); test: Inhibition of HFIP-pretreated amyloid beta (1 to 42) (unknown origin) self aggregation at 50 uM measured every 10 mins for 72 hrs by Thioflavin T flourimetric assay relative to control
Amyloid-beta precursor protein (Homo sapiens), sequence (P05067 whole entry): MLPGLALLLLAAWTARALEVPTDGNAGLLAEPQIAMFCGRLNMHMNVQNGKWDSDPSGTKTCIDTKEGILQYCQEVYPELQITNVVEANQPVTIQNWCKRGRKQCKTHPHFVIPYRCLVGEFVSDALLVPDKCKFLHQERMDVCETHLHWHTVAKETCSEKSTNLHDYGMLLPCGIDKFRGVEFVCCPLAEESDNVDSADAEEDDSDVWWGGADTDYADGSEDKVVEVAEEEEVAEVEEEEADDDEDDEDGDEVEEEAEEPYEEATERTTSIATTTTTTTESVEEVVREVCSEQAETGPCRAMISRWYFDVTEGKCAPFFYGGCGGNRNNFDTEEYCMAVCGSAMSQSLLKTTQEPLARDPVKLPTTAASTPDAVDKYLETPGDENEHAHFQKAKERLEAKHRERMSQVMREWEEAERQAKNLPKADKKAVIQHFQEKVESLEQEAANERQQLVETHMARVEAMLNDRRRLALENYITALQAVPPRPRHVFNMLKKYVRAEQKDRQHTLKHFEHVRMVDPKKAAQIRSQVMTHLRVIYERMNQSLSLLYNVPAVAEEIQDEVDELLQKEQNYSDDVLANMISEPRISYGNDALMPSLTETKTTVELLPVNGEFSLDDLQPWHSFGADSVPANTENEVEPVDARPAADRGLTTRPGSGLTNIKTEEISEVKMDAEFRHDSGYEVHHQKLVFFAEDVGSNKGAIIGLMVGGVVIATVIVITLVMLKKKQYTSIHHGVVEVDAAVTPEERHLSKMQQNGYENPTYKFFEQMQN

[2] = Anti-inflammatory activity in mouse SIM-A9 cells assessed as decrease in LPS-induced TNF-alpha production at 1 ug/ml preincubated for 1 hr followed by stimulation with LPS and measured after 23 hrs by ELISA assay; assay type: functional; design: scale not given: the % may be the effect or the level left; details: dose 1 µg/ml; time 24 hrs
[3] = Anti-inflammatory activity in mouse SIM-A9 cells assessed as decrease in LPS-induced IL-6 production at 1 ug/ml preincubated for 1 hr followed by stimulation with LPS and measured after 23 hrs by ELISA assay; assay type: functional; design: scale not given: the % may be the effect or the level left; details: dose 1 µg/ml; time 24 hrs
[4] = Radical scavenging activity of compound measured after 15 mins by ABTS radical scavenging activity in relative to clioquinol; assay type: functional
[5] = target: T1, Amine oxidase [flavin-containing] A (Homo sapiens, UniProt P21397); test: Inhibition of human MAO-A preincubated for 5 mins followed by addition of Kynuramine substrate and measured after 30 mins by plate reader method
T1 sequence (P21397 whole entry): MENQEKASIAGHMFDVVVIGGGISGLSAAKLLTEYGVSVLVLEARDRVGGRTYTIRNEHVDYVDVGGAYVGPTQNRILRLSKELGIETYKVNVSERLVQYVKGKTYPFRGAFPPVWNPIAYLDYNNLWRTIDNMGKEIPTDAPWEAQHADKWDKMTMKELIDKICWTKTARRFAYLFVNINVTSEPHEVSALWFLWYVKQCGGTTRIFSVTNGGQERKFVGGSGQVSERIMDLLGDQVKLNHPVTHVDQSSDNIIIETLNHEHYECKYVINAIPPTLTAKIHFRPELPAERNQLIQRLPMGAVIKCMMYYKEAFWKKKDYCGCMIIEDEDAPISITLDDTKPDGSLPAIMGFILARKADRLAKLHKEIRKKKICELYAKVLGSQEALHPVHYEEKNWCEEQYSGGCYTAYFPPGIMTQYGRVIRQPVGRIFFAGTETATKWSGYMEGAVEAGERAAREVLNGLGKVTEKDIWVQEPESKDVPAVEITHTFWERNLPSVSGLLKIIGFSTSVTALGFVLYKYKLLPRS

[6] = Cytotoxicity against mouse SIM-A9 cells measured after 24 hrs by MTT assay; assay type: functional, cell-based; details: SIM-A9, 24 h
[7] = Radical scavenging activity of compound in presence of Cu+2 measured after 15 mins by ABTS radical scavenging activity in relative to clioquinol; assay type: functional
[8] = target: T2, Amine oxidase [flavin-containing] B (Homo sapiens, UniProt P27338); test: Inhibition of human MAO-B preincubated for 5 mins followed by addition of Kynuramine substrate and measured after 30 mins by plate reader method
T2 sequence (P27338 whole entry): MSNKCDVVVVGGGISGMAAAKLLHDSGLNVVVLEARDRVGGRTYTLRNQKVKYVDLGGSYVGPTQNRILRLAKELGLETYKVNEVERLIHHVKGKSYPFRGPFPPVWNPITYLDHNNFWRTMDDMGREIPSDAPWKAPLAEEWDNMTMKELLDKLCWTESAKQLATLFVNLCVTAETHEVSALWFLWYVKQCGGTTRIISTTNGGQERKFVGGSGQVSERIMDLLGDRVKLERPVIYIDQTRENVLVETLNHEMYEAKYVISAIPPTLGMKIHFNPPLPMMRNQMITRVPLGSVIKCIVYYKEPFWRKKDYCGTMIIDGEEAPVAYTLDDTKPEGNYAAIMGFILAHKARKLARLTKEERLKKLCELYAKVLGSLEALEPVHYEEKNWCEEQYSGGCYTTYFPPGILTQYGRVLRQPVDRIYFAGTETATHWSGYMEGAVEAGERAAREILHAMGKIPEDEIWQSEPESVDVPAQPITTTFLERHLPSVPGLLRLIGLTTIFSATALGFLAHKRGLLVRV

[9] = Permeability of compound at pH 7.4 measured after 6 hrs by PAMPA assay
[10] = Metal chelating activity assessed as compound-Cu2+ complex formation measured by EPR-spectroscopy; assay type: functional
[11] = Cytotoxicity against mouse SIM-A9 cells assessed as non-toxic concentration measured after 24 hrs by MTT assay; assay type: functional
[12] = organism: Homo sapiens; test: Selectivity index, ratio of IC50 for human MAO-A to IC50 for human MAO-B using Kynuramine as substrate measured by plate reader method
[13] = test system: SH-SY5Y; test: Cytotoxicity against human SH-SY5Y cells measured after 24 hrs by MTT assay; assay type: functional, cell-based
[14] = Anti-inflammatory activity in mouse SIM-A9 cells assessed as decrease in LPS-induced IL-6 production at 4 uM preincubated for 1 hr followed by stimulation with LPS and measured after 23 hrs by ELISA assay; assay type: functional; design: scale not given: the % may be the effect or the level left; details: time 24 hrs
[15] = Anti-inflammatory activity in mouse SIM-A9 cells assessed as decrease in LPS-induced IL-6 production at 2 uM preincubated for 1 hr followed by stimulation with LPS and measured after 23 hrs by ELISA assay; assay type: functional; design: scale not given: the % may be the effect or the level left; details: time 24 hrs
[16] = Toxicity in human SH-SY5Y cells assessed by intracellular dehydrogenase activity at 100 uM measured after 24 hrs by WST-1 assay; assay type: cell-based; details: read-out: Activity
[17] = Toxicity in human SH-SY5Y cells assessed as change in respiratory states by measuring LEAK at 0.1 to 100 uM measured after 24 hrs by respirometer; assay type: cell-based; details: dose 0.1-100 µM
[18] = Toxicity in human SH-SY5Y cells assessed as change in respiratory states by measuring ROUTINE at 0.1 to 100 uM measured after 24 hrs by respirometer; assay type: cell-based; details: dose 0.1-100 µM
[19] = Toxicity in human SH-SY5Y cells assessed as change in respiratory states by measuring ETS at 0.1 to 100 uM measured after 24 hrs by respirometer; assay type: cell-based; details: dose 0.1-100 µM
[20] = Anti-inflammatory activity in mouse SIM-A9 cells assessed as decrease in LPS-induced TNF-alpha production at 8 uM preincubated for 1 hr followed by stimulation with LPS and measured after 23 hrs by ELISA assay; assay type: functional; design: scale not given: the % may be the effect or the level left; details: time 24 hrs
[21] = Anti-inflammatory activity in mouse SIM-A9 cells assessed as decrease in LPS-induced TNF-alpha production at 4 uM preincubated for 1 hr followed by stimulation with LPS and measured after 23 hrs by ELISA assay; assay type: functional; design: scale not given: the % may be the effect or the level left; details: time 24 hrs
[22] = Toxicity in human SH-SY5Y cells assessed by glutathione depletion at 10 uM measured after 24 hrs by monochlorobimane based plate reader assay; assay type: cell-based
[23] = Anti-inflammatory activity in mouse SIM-A9 cells assessed as decrease in LPS-induced IL-6 production at 8 uM preincubated for 1 hr followed by stimulation with LPS and measured after 23 hrs by ELISA assay; assay type: functional; design: scale not given: the % may be the effect or the level left; details: time 24 hrs
[24] = Toxicity in human SH-SY5Y cells assessed by intracellular dehydrogenase activity at 10 uM measured after 24 hrs by WST-1 assay; assay type: cell-based; details: read-out: Activity
[25] = Toxicity in human SH-SY5Y cells assessed by changes in mitochondrial membrane potential at 0.1 to 100 uM measured after 24 hrs by JC-1 probe based fluorescence reader assay; assay type: cell-based; details: dose 0.1-100 µM
[26] = Anti-inflammatory activity in mouse SIM-A9 cells assessed as decrease in LPS-induced TNF-alpha production at 2 uM preincubated for 1 hr followed by stimulation with LPS and measured after 23 hrs by ELISA assay; assay type: functional; design: scale not given: the % may be the effect or the level left; details: time 24 hrs
[27] = Toxicity in human SH-SY5Y cells assessed as change in respiratory states by measuring ROX at 0.1 to 100 uM measured after 24 hrs by respirometer; assay type: cell-based; details: dose 0.1-100 µM
[28] = target: T2, Amine oxidase [flavin-containing] B; test: Competitive inhibition of human MAO-B assessed as increase of Km with constant Vmax using Kynuramine at 0.05 to 0.2 uM measured after 30 mins by plate reader method; details: 0.5 h, dose 0.05-0.2 µM
[29] = target: T2, Amine oxidase [flavin-containing] B; test: Mixed inhibition of human MAO-B using Kynuramine as substrate measured upto 60 mins by plate reader method; details: 1 h
[30] = target: T2, Amine oxidase [flavin-containing] B; test: Reversible inhibition of human MAO-B using Kynuramine as substrate at pH 7 measured after 30 mins by plate reader method; details: pH 7, 0.5 h
[31] = target: T2, Amine oxidase [flavin-containing] B; test: Mixed inhibition of human MAO-B assessed as increase of Km with decrease of Vmax using Kynuramine at 0.3 to 2 uM measured after 30 mins by plate reader method; details: 0.5 h, dose 0.3-2 µM
[32] = target: T2, Amine oxidase [flavin-containing] B; test: Non-covalent inhibition of human MAO-B using Kynuramine as substrate measured upto 60 mins by plate reader method; details: 1 h

## C[C@H]1c2cccc(O)c2C(=O)C2=C(O)[C@]3(O)C(=O)C(C(N)=O)=C(O)[C@@H](N(C)C)[C@@H]3[C@@H](O)[C@@H]21
[1]
  inhibition: 93.1%

## C[C@@H]1C[C@H]2[C@@H]3CCC4=CC(=O)C=C[C@]4(C)[C@@]3(F)[C@@H](O)C[C@]2(C)[C@@]1(O)C(=O)CO [DEXAMETHASONE]
[2]
  Activity: 60%
[3]
  Activity: 40%

## C#CCN(C)C1=C(Cl)C(=O)c2ccccc2C1=O
[4]
  Activity: Active
[1]
  inhibition: 40.5%
[5]
  IC50: 10 µM
[6]
  IC50: 7.3 µM
[7]
  Activity: 5%
[8]
  IC50: 0.14 µM
[9]
  Papp at 6 h: 14 ×10⁻⁶ cm/s
[10]
  Activity: Active
[11]
  MNTD: 2 µM
[12]
  Selectivity Index: 71
[13]
  IC50: 3.3 µM

## CNC(=C[N+](=O)[O-])NCCSCc1ccc(CN(C)C)o1 [RANITIDINE]
[9]
  Papp at 6 h: 0.04 ×10⁻⁶ cm/s

## C#CCNC1=CC(=O)c2cccc(OCc3ccccc3)c2C1=O
[14]
  Activity: 74%
[15]
  Activity: 95%
[16]
  viability at 24 h, 100 µM: 88%
[4]
  Activity: 15%
[17]
  Activity: Non-Toxic
[18]
  Activity: Non-Toxic
[19]
  Activity: Non-Toxic
[20]
  Activity: 46%
[1]
  inhibition: 17.5%
[21]
  Activity: 74%
[6]
  IC50: > 32 µM
[22]
  Activity: 89%
[23]
  Activity: 49%
[7]
  Activity: 10%
[9]
  Papp at 6 h: 25.5 ×10⁻⁶ cm/s
[10]
  Activity: Active
[11]
  MNTD: 8 µM
[24]
  viability at 24 h, 10 µM: 89%
[25]
  Activity: Non-Toxic
[26]
  Activity: 76%
[27]
  Activity: Non-Toxic
[13]
  IC50: > 64 µM

## C#CCN(C)C1=CC(=O)c2ccccc2C1=O
[1]
  inhibition: 67.4%
[5]
  IC50: 6.64 µM
[6]
  IC50: 36.1 µM
[8]
  IC50: 8.62 µM
[9]
  Papp at 6 h: 18.5 ×10⁻⁶ cm/s
[11]
  MNTD: 8 µM
[12]
  Selectivity Index: 0.77
[13]
  IC50: 22 µM

## C#CCNC1=CC(=O)c2c(O)ccc(O)c2C1=O
[1]
  inhibition: 21.7%
[6]
  IC50: 5.3 µM
[9]
  Papp at 6 h: 43.3 ×10⁻⁶ cm/s
[11]
  MNTD: 0.4 µM
[13]
  IC50: 15 µM

## C#CCNC1=CC(=O)c2cccc(OCC)c2C1=O
[1]
  inhibition: 11.2%
[6]
  IC50: > 64 µM
[9]
  Papp at 6 h: 18.5 ×10⁻⁶ cm/s
[11]
  MNTD: 32 µM
[13]
  IC50: > 64 µM

## C#CCNC1=C(Cl)C(=O)c2ccccc2C1=O
[4]
  Activity: Active
[28]
  inhibition (INH): Active
[1]
  inhibition: 18.4%
[5]
  IC50: 7.76 µM
[6]
  IC50: 10.4 µM
[8]
  IC50: 0.05 µM
[9]
  Papp at 6 h: 29.4 ×10⁻⁶ cm/s
[10]
  Activity: Active
[11]
  MNTD: 4 µM
[29]
  inhibition (INH): Active
[12]
  Selectivity Index: 155
[13]
  IC50: 4.6 µM

## C#CCNC1=CC(=O)c2cccc(OC)c2C1=O
[1]
  inhibition: 15.5%
[6]
  IC50: 116 µM
[9]
  Papp at 6 h: 18.8 ×10⁻⁶ cm/s
[11]
  MNTD: 8 µM
[13]
  IC50: > 32 µM

## C#CCNC1=CC(=O)c2ccccc2C1=O
[1]
  inhibition: 24%
[5]
  IC50: 9.81 µM
[6]
  IC50: 34.6 µM
[30]
  inhibition (INH): Active
[8]
  IC50: 0.27 µM
[9]
  Papp at 6 h: 20.8 ×10⁻⁶ cm/s
[31]
  inhibition (INH): Active
[11]
  MNTD: 4 µM
[32]
  inhibition (INH): Active
[12]
  Selectivity Index: 36
[13]
  IC50: > 64 µM
